Results from US11980211B2, “Verbascoside and related compounds for sweetness enhancement” (International Flavors & Fragrances Inc., priority 2018, dated 2024).

How the values were obtained:
[1] = Flavor profile of Luo Han Guo solution with added verbascoside or isoverbascoside; conditions: Luo Han Guo solution (120 ppm)
Procedure: A Luo Han Guo (Biovittoria Ltd., New Zealand) solution was prepared in water (120 ppm). Verbascoside and isoverbascoside solutions were prepared as above (EXAMPLE II). The flavor profile of the Luo Han Guo solution with added verbascoside and isoverbascoside is reported in the following: […]

[2] = Flavor profile of sucrose solution with added verbascoside or isoverbascoside; conditions: sucrose solution (4%)
Procedure: A sucrose solution (4%) was prepared in water. Each of verbascoside and isoverbascoside solutions of different concentrations was prepared in ethanol solution in water (50%). Verbascoside and isoverbascoside were evaluated at 1 and 200 ppm, respectively.
The flavor profile of the sucrose solution with added verbascoside and isoverbascoside is reported in the following: […]

| Structure (SMILES) | overall effect (summary) [1] | overall effect (summary) [2] |
| --- | --- | --- |
| CC1OC(OC2C(O)C(OCCc3ccc(O)c(O)c3)OC(CO)C2OC(=O)/C=C/c2ccc(O)c(O)c2)C(O)C(O)C1O [Verbascoside, (E)-2-(3,4-dihydroxyphenyl)ethyl 3-O-(6-deoxy-α-L-mannopyranosyl)-4-[3-(3,4-dihydroxyphenyl)-2-propenoate]-β-D-Glucopyranoside] | exhibited particular effect in sweetness enhancement | exhibited particular effect in sweetness enhancement |
| CC1OC(OC2C(O)C(COC(=O)/C=C/c3ccc(O)c(O)c3)OC(OCCc3ccc(O)c(O)c3)C2O)C(O)C(O)C1O (stereo not shown) [Isoverbascoside, isoverbascoside] | enhanced overall mouthfeel and suppressed Luo Han Guo's lingering off-taste | enhanced overall mouthfeel |
